This passage reports EC50 results from patent US10344019B2 (priority 2010, dated 2019).

pEC50: −log10 of the molar value. Read-outs that look alike come from different tables or passages of the source. Bounds are passed on as bounds.

Type in all cases: cell-based
Test [1] concerns HCV 1a RLuc cells (dicistronic genotype 1a H77 replicon, RLuc reporter). Put plainly: microbe, parasite or virus in culture. The following applies: Hepatitis C virus, read-out: 1a. Summed up: (§1)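 Replicons used: genotype 1b Con1, 1a H77, 2a JFH-1, and a 2a JFH-1 chimera with J6-strain NS5A (M31 present), all dicistronic.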
Test [2] deals with HCV 1b RLuc cells (dicistronic genotype 1b Con1 replicon, RLuc reporter). Put plainly: microbe, parasite or virus in culture. The following applies: Hepatitis C virus, read-out: 1b (nM). Summed up:
as §1

The test system of test [3] is HCV 2a JFH-1 Rluc cells (dicistronic genotype 2a JFH-1 replicon, RLuc reporter). Description: microbe, parasite or virus in culture. The following applies: Hepatitis C virus, read-out: 2a JFH. Summed up:
as §1

Test [4] relates to HCV 2b Rluc cells (NS5A chimeric genotype 2a JFH-1 replicon with genotype 2b MD2b-1 NS5A gene, M31 present). Put plainly: microbe, parasite or virus in culture. Conditions: Hepatitis C virus, read-out: 2b. Put shortly: (§2)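 Replicon cells stably carrying the listed RLuc-encoding dicistronic replicons were seeded and treated with DMSO serial dilutions of compound (10 mM stocks) diluted into culture medium. After 72 h, cells were lysed and Renilla luciferase activity measured. EC50 was derived by non-linear regression.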

Test [5] has as its system HCV 3a RLuc cells (NS5A chimeric genotype 1b Con1 replicon with consensus genotype 3a NS5A gene). Description: microbe, parasite or virus in culture. Conditions: Hepatitis C virus, read-out: 3a, genotype 3a replicon. Summed up:
as §2
(In general: A replicon is a self-replicating genome or part of one, used to study replication in cells.)

For test [6], the system named is HCV 4a Rluc cells (NS5A chimeric genotype 1b Con1 replicon with genotype 4a NS5A gene). Description: microbe, parasite or virus in culture. The following applies: Hepatitis C virus, read-out: 4a. Summed up:
as §2

Test [7] concerns HCV 2a Rluc cells (NS5A chimeric genotype 2a JFH-1 replicon with genotype 2a J6 strain NS5A gene, M31 present). Put plainly: HCV replicon reporter assay, genotype 2a J6 (M31 present). The following applies: Hepatitis C virus, read-out: 2a J6. How it is done: Evaluation of cell-based anti-HCV activity: Antiviral potency (EC50) was determined using a Renilla luciferase (RLuc)-based HCV replicon reporter assay. To perform the assay for genotype 1 and 2a JFH-1, HCV 1b RLuc cells (harboring a dicistronic genotype 1b Con1 replicon that encodes a RLuc reporter), or HCV 1a RLuc cells (harboring a dicistronic genotype 1a H77 replicon that encodes a RLuc reporter), or HCV 2a JFH-1 Rluc cells (harboring a dicistronic genotype 2a JFH-1 replicon that encodes a RLuc reporter) were dispensed into 384-well plates. To perform the assay for genotype 2a (with M31 present) or 2b, HCV 2a Rluc or 2b Rluc cells (both with M31 present) harboring a dicistronic NS5A chimeric genotype 2a JFH-1 replicon that encodes a RLuc reporter and either genotype 2a J6 strain NS5A gene or genotype 2b MD2b-1 NS5A gene (based on Los Alamos HCV database isolates, both with M31 present) respectively, were dispensed into 384-well plates. To perform the assay for genotype 3 and 4, HCV 3a RLuc or 4a Rluc cells harboring a dicistronic NS5A chimeric genotype 1b Con1 replicon that encodes a RLuc reporter and either a consensus genotype 3a NS5A gene or genotype 4a NS5A gene (based on Los Alamos HCV database isolates) respectively, were dispensed into 384-well plates. Compounds were re-suspended in DMSO at a concentration of 10 mM and serially diluted in DMSO either manually or using an automated pipeting instrument. Serially diluted compounds were mixed with cell culture media and added to the seeded cells. […] 72 hours later, cells were lysed and Renilla luciferase activity quantified as recommended by the manufacturer (Promega-Madison, Wis.). Non-linear regression was performed to calculate EC50 values.

Where [8] appears, read: genotype 2a JFH-1 RLuc replicon.

Take `CC[C@H](C)C(NC(=O)OC)C(=O)N1CCC[C@H]1c1ncc(-c2cc3c4c(c2)OCc2cc(-c5cnc([C@@H]6CCCN6C(=O)[C@@H](NC(=O)OC)[C@@H](C)CC)[nH]5)cc(c2-4)OC3)[nH]1` (stereo in doubt) [Example 346]: the pEC50 in test [1] was 9.00 to 12.00; in test [3], 9.00 to 12.00; in test [4] it was 7.36 to 9.00; in test [5], 9.00 to 12.00; in test [6], 9.00 to 12.00. In addition, in test [2], the EC50 is 0.019 nM.
Take `COC(=O)N[C@H](C(=O)N1CCC[C@H]1c1ncc(-c2cc3c4c(c2)OCc2cc(-c5[nH]c([C@@H]6CCCN6C(=O)[C@@H](NC(=O)OC)C(C)C)nc5Cl)cc(c2-4)OC3)[nH]1)C(C)C` [Example 389]: the pEC50 in test [1] (genotype 1a replicon) is 9.00 to 12.00; in test [3] (genotype 2a JFH-1 replicon), 9.00 to 12.00; in test [5], 9.00 to 12.00; in test [6] it was 9.00 to 12.00; in test [7] it was 7.36 to 9.00. Further, the EC50 in test [2] was found to be 0.015 nM.
As to `COC(=O)N[C@H](C(=O)N1[C@@H]2C[C@@H]2C[C@H]1c1ncc(-c2ccc(-c3ccc4c(ccc5nc([C@@H]6C[C@H]7C[C@H]7N6C(=O)[C@@H](NC(=O)OC)C(C)C)[nH]c54)c3)cc2F)[nH]1)C(C)C` [Example 390], the pEC50 in test [1] (genotype 1a replicon) was 9.00 to 12.00; in test [3] (genotype 2a JFH-1 replicon), 9.00 to 12.00; in test [5], 8.30 to 9.00; in test [6], 9.00 to 12.00; in test [7] it was under 7.36. Besides, in test [2], the EC50 amounted to 0.003 nM.
Take `COC(=O)N[C@H](C(=O)N1[C@@H]2CC[C@@H](C2)[C@H]1c1nc2ccc3cc(-c4ccc(-c5cnc([C@@H]6C[C@H]7C[C@H]7N6C(=O)[C@@H](NC(=O)OC)C(C)C)[nH]5)c(F)c4)ccc3c2[nH]1)C(C)C` [Example 391]: the pEC50 in test [1] (genotype 1a replicon) was 9.00 to 12.00; in test [3] (genotype 2a JFH-1 replicon), 9.00 to 12.00; in test [5] it was under 8.30; in test [6], 9.00 to 12.00; in test [7] it was under 7.36. Also, the EC50 in test [2] stood at 0.009 nM.
Turning to `COC(=O)N[C@H](C(=O)N1[C@@H]2CC[C@@H](C2)[C@H]1c1nc2ccc3cc(-c4ccc(-c5cnc([C@@H]6C[C@H]7C[C@H]7N6C(=O)[C@@H](NC(=O)OC)C6CCOCC6)[nH]5)c(F)c4)ccc3c2[nH]1)C(C)C` [Example 392], the pEC50 in test [1] (genotype 1a replicon) is 9.00 to 12.00; in test [3] (genotype 2a JFH-1 replicon), 9.00 to 12.00; in test [5], 8.30 to 9.00; in test [6], 9.00 to 12.00; in test [7], under 7.36. Besides, the EC50 in test [2] was 0.022 nM.
In the case of `COC(=O)N[C@H](C(=O)N1CCC[C@H]1c1ncc(-c2ccc3c(c2)COc2cc(-c4cnc([C@@H]5CCCN5C(=O)[C@@H](NC(=O)OC)C(C)C)[nH]4)cc(F)c2-3)[nH]1)C(C)C` [Example 393], the pEC50 is 9.00 to 12.00 in test [1] (genotype 1a replicon); 9.00 to 12.00 in test [3] (genotype 2a JFH-1 replicon); 9.00 to 12.00 in test [5]; 9.00 to 12.00 in test [6]; under 7.36 in test [7]. Moreover, the EC50 in test [2] is 0.012 nM.
On to `COC(=O)N[C@H](C(=O)N1CCC[C@H]1c1nc(Cl)c(-c2cc3c4c(c2)OCc2cc(-c5[nH]c([C@@H]6CCCN6C(=O)[C@H](NC(=O)OC)c6ccccc6)nc5Cl)cc(c2-4)OC3)[nH]1)C(C)C` [Example 399], for which the pEC50 in test [1] (genotype 1a replicon), in test [3] (genotype 2a JFH-1 replicon), in test [5], in test [6] and in test [7] was 9.00 to 12.00 each time. Also, the EC50 in test [2] is 0.017 nM.
In the case of `COC(=O)N[C@H](C(=O)N1[C@@H]2CC[C@@H](C2)[C@H]1c1nc(Cl)c(-c2ccc(-c3ccc4c(ccc5nc([C@@H]6CCCN6C(=O)[C@H](NC(=O)OC)c6ccccc6)[nH]c54)c3)cc2)[nH]1)C(C)C` [Example 401], the pEC50 is 9.00 to 12.00 in test [1] (genotype 1a replicon); 9.00 to 12.00 in test [3] (genotype 2a JFH-1 replicon); 9.00 to 12.00 in test [5]; 9.00 to 12.00 in test [6]; 7.36 to 9.00 in test [7]. Further, in test [2], the EC50 is 0.015 nM.
Regarding `COC(=O)N[C@H](C(=O)N1CCC[C@H]1c1nc2ccc3cc(-c4ccc(-c5[nH]c([C@@H]6[C@H]7CC[C@H](C7)N6C(=O)[C@H](NC(=O)OC)c6ccccc6)nc5Cl)cc4)ccc3c2[nH]1)C(C)C` [Example 402], the pEC50 in test [1] (genotype 1a replicon) was 9.00 to 12.00; in test [3] (genotype 2a JFH-1 replicon), 9.00 to 12.00; in test [5], 9.00 to 12.00; in test [6], 9.00 to 12.00; in test [7], under 7.36. Besides, the EC50 in test [2] was found to be 0.015 nM.
On to `COC(=O)N[C@H](C(=O)N1CCC[C@H]1c1nc(Cl)c(-c2ccc3c(c2)OCc2c-3ccc(-c3[nH]c([C@@H]4CCCN4C(=O)[C@@H](NC(=O)OC)C(C)C)nc3Cl)c2F)[nH]1)C(C)C` [Example 404], for which the pEC50 in test [1] (genotype 1a replicon) is 9.00 to 12.00; in test [3] (genotype 2a JFH-1 replicon), 9.00 to 12.00; in test [5], 9.00 to 12.00; in test [6], 9.00 to 12.00; in test [7], under 7.36. Also, the EC50 in test [2] turned out to be 0.008 nM.
Regarding `COC(=O)N[C@H](C(=O)N1[C@@H]2CC[C@@H](C2)[C@H]1c1nc2ccc3cc(-c4ccc5c(ccc6nc([C@@H]7C[C@H]8C[C@H]8N7C(=O)[C@@H](NC(=O)OC)C(C)C)[nH]c65)c4)ccc3c2[nH]1)C(C)C` [Example 405], the pEC50 in test [1] (genotype 1a replicon) is 9.00 to 12.00; in test [3] (genotype 2a JFH-1 replicon), 9.00 to 12.00; in test [5], 9.00 to 12.00; in test [6] it was 9.00 to 12.00; in test [7], 7.36 to 9.00. In test [2], the EC50 was found to be 0.009 nM.
`COC(=O)N[C@@H](C(=O)N1[C@@H]2CC[C@@H](C2)[C@H]1c1nc2ccc3cc(-c4ccc5c(ccc6nc([C@@H]7C[C@H]8C[C@H]8N7C(=O)[C@H](NC(=O)OC)c7ccccc7)[nH]c65)c4)ccc3c2[nH]1)c1ccccc1` [Example 406]: the pEC50 in test [1] (genotype 1a replicon), in test [3] (genotype 2a JFH-1 replicon), in test [5], in test [6] and in test [7] was 9.00 to 12.00 throughout. Besides, the EC50 in test [2] stood at 0.017 nM.
On to `COC(=O)N[C@H](C(=O)N1CCC[C@H]1c1nnc(-c2ccc(-c3ccc4c(ccc5nc([C@@H]6CCCN6C(=O)[C@@H](NC(=O)OC)C(C)C)[nH]c54)c3)cc2)[nH]1)C(C)C` [Example 407], for which the pEC50 is 9.00 to 12.00 in test [1] (genotype 1a replicon); 9.00 to 12.00 in test [3] (genotype 2a JFH-1 replicon); 8.30 to 9.00 in test [5]; 9.00 to 12.00 in test [6]; under 7.36 in test [7]. The EC50 in test [2] amounted to 0.048 nM.
In the case of `COC(=O)N[C@H](C(=O)N1[C@@H](C)CC[C@H]1c1ncc(-c2ccc3c(c2)COc2cc4c(ccc5nc([C@@H]6CCCN6C(=O)[C@@H](NC(=O)OC)C6CCOCC6)[nH]c54)cc2-3)[nH]1)C(C)C` [Example 602], the pEC50 in test [1] (genotype 1a H77 RLuc replicon), in test [3] (setting [8]), in test [4] and in test [7] was 9.00 to 12.00 throughout.
As for `COC[C@H]1C[C@@H](c2ncc(-c3ccc4c(c3)COc3cc5c(ccc6nc([C@@H]7CCCN7C(=O)[C@@H](NC(=O)OC)C(C)C)[nH]c65)cc3-4)[nH]2)N(C(=O)[C@H](N)c2ccccc2)C1` [Example 607], the pEC50 in test [1] (genotype 1a H77 RLuc replicon), in test [3] (setting [8]), in test [4] and in test [7] was 9.00 to 12.00 each time.
As for `CC[C@@H](C)[C@H](NC(=O)OC)C(=O)N1C[C@@H](COC)C[C@H]1c1ncc(-c2ccc3c(c2)COc2cc4c(ccc5nc([C@@H]6CC[C@H](C)N6C(=O)[C@@H](NC(=O)OC)C(C)C)[nH]c54)cc2-3)[nH]1` [Example 628], the pEC50 in test [1] (genotype 1a H77 RLuc replicon), in test [3] (setting [8]), in test [4] and in test [7] was 9.00 to 12.00 each time.
Consider `COC[C@H]1C[C@@H](c2nc3ccc4cc5c(cc4c3[nH]2)OCc2cc(-c3cnc([C@@H]4CCCN4C(=O)[C@H](NC(=O)OC)c4ccccc4)[nH]3)ccc2-5)N(C(=O)[C@@H](NC(=O)OC)[C@@H](C)OC)C1` [Example 635], for which the pEC50 in test [1], in test [3] and in test [4] was 9.00 to 12.00 throughout.
